Here are results for 18 compounds from publication PMC7802074, “Azanitrile Inhibitors of the SmCB1 Protease Target Are Lethal to Schistosoma mansoni: Structural and Mechanistic Insights into Chemotype Reactivity” (ACS Infectious Diseases, 2020).

SMILES strings stand for the structures. “And” between values parts separate entries of the source, which are not always exact repeats. Equal values may be shown once. Read-outs that look alike come from different tables or passages of the source.

One test deals with recombinant SmCB1 (Schistosoma mansoni, UniProt Q8MNY2, T185A/T300A). Description: SmCB1 kinetic inhibition assay with fluorogenic substrate Cbz-Phe-Arg-AMC. To be noted: for Ki / SmCB1 inhibition k2nd (second-order rate constant): substrate Cbz-Phe-Arg-AMC; for SmCB1 inhibition k2nd (second-order rate constant): slow-binding azadipeptide nitriles. Format: biochemical. How it is done: Inhibition measurements were performed in triplicates in 96-well microplates (100 μL assay volume) at 37 °C. SmCB1 (20–40 pM) was added to a mixture of the fluorogenic substrate Cbz-Phe-Arg-AMC (20 μM) and an inhibitor (0–100 μM) in 0.1 M sodium acetate, pH 5.5, containing 2.5 mM dithiothreitol and 0.1% PEG 6000. The substrate hydrolysis was monitored in an Infinite M1000 microplate reader (Tecan, Männedorf, Switzerland) at excitation and emission wavelengths of 360 and 465 nm, respectively, for up to 15 and 60 min for fast- and slow-binding inhibitors, respectively. […] For slow-binding inhibitors, an observed first-order rate constant kobs was calculated at each inhibitor concentration by fitting the progress curve to the equation P = vst + (vi – vs)(1 – […])/kobs + d, where P is the product formation, vs is the steady-state velocity, t is the reaction time, vi is the initial velocity, and d is the offset. The inhibition constant Ki′ was determined by nonlinear regression using the equation vs/v0 = 1/(1 + [I]/Ki′). The true inhibition constants Ki were then calculated using the equation Ki = Ki′/(1 + [S]/Km), where [S] is the substrate concentration and Km is the Michaelis constant. The apparent second-order rate constant k2nd′ was determined by fitting to the linear equation kobs = k2nd′[I] + koff, where koff is the first-order rate constants for the dissociation of the enzyme–inhibitor complex and the true constant k2nd was calculated by the correction k2nd = k2nd′(1 + [S]/Km). […] In none of the assay systems did the final concentration of DMSO exceed 1.5%.
Chain of recombinant SmCB1 (Q8MNY2 87-340 T185A/T300A): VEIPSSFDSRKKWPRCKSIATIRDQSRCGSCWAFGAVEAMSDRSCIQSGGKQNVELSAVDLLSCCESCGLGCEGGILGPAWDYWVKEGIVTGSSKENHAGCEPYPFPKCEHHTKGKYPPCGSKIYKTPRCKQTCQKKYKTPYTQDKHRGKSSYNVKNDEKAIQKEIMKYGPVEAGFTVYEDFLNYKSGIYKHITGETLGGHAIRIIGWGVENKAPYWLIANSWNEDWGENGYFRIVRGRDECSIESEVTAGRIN

In test [1] the test system is S. mansoni newly transformed schistosomula (NTS). Description: Schistosome phenotypic assay. The format is cell-based, Schistosoma mansoni. To be noted: for Severity score Day 1 / Severity score Day 2 / Severity score Day 3 / Severity score Day 4: 10 μM inhibitor, scale 0 (no effect) to 4 (severe); for Severity score Day 1: 24 h; for Severity score Day 2: 48 h; for Descriptors Day 1 (phenotypic changes) / Descriptors Day 2 (phenotypic changes) / Descriptors Day 4 (phenotypic changes) / Descriptors Day 3 (phenotypic changes): 10 µM inhibitor. As for the experimental part:
Newly transformed schistosomula (NTS) of S. mansoni were prepared by mechanically transforming infective larvae (cercariae) as described previously.[70],[71] NTS (200–300 parasites) were incubated in 200 μL of Basch Medium 169 containing 5% FBS, 100 U mL^–1 penicillin, and 100 μg mL^–1 streptomycin at 5% CO2 and 37 °C.[70],[72],[73] Inhibitors were added at the final concentration of 10 μM,[20],[69] and changes in phenotypes were observed every 24 h for up to 4 days. A constrained nomenclature of “descriptors” is used to record the multiple and dynamic changes in movement, shape, and translucence of which the schistosome parasite is capable (Table S3).[70] These descriptors are then converted into an ordinal “severity score” system from 0 (no effect) to 4 (maximum effect), which allows for the relative comparison of compound effects, as described.[74],[75] Images of NTS were captured using a Zeiss Axiovert 40 C inverted microscope (10× objective) and a Zeiss AxioCam MRc digital camera controlled by AxioVision 40 (v. 4.8.1.0) software.

Setting [2] is: Table S2, carbadipeptide nitriles, read-out: SmCB1 inhibition Ki.
The mark [3] stands for this setting: SmCB1 inhibition Ki, kinetic activity assay, pH 5.5, 37 °C.
The mark [4] stands for this setting: SmCB1 inhibition Ki, Table S2, carbadipeptide nitriles.

With `N#CCNC(=O)[C@H](Cc1ccccc1)NC(=O)c1ccc(-c2ccccc2)cc1` [Gü1136], the inhibitory constant (Ki) on recombinant SmCB1 (setting [2]) came to 53 ± 12 nM. Moreover, in test [1], the “Severity score Day 1” value was 0, the “Severity score Day 2” value stood at 0, the “Severity score Day 3” value was 0 and the “Severity score Day 4” value came to 0.
Regarding `COc1ccc(C[C@H](NC(=O)OCc2ccccc2)C(=O)N(C)N(C)C#N)cc1` [Compound 13a], the Ki on recombinant SmCB1 (setting [3]) is 80.6 ± 7.1 nM. In test [1], the “Descriptors Day 1 (phenotypic changes)” value is reported as “Deg”; the “Descriptors Day 2 (phenotypic changes)” value is on record as “Deg”; the “Severity score Day 1” value was 4 and 4/4; the “Severity score Day 2” value was 4 and 4/4. Moreover, in test [1], the “Severity score Day 3” value came out at 4 and the “Severity score Day 4” value was 4.
On to `CC(C)C[C@H](NC(=O)Nc1ccc(-c2noc(-c3cccs3)n2)cc1)C(=O)N(C)N(C)C#N` [Compound 4a], for which the inhibition constant (Ki) at recombinant SmCB1 (setting [3]) is 36.7 ± 2.6 nM. On recombinant SmCB1, the “SmCB1 inhibition k2nd (second-order rate constant)” value (“SmCB1 inhibition k2nd” below) was 13.9 ± 2.9 10^3 M^-1 s^-1. Also, in test [1], the “Descriptors Day 1 (phenotypic changes)” value is “R, Unc, Dark”; the “Descriptors Day 2 (phenotypic changes)” value is on record as “Deg”; the “Severity score Day 1” value came to 3; the “Severity score Day 2” value is recorded as 4. In addition, in test [1], the “Severity score Day 3” value is on record as 4 and the “Severity score Day 4” value is given as 4.
As to `CC(C)C[C@@H](C(=O)NCC#N)N(C)C(=O)c1ccc(-c2noc(-c3cccs3)n2)cc1` [Compound 6c], the inhibition constant Ki on recombinant SmCB1 (setting [4]) was over 10000 nM. Further, at recombinant SmCB1 (setting [3]), the inhibition constant (Ki) was over 100000 nM. In addition, in test [1], the “Descriptors Day 4 (phenotypic changes)” value is “R”, the “Severity score Day 1” value was 0 and the “Severity score Day 3” value amounted to 0.
Turning to `Cc1nc(-c2ccc(CNC(=O)N[C@@H](CC(C)C)C(=O)N(C)N(C)C#N)cc2)no1` [Compound 16a], the inhibition constant Ki on recombinant SmCB1 (setting [3]) is 30 ± 4.1 nM. Also, on recombinant SmCB1, the “SmCB1 inhibition k2nd” value is on record as 9.2 ± 0.8 10^3 M^-1 s^-1. Also, in test [1], the “Descriptors Day 2 (phenotypic changes)” value is reported as “R, Unc”; the “Descriptors Day 3 (phenotypic changes)” value is “R, Unc, Dark”; the “Descriptors Day 4 (phenotypic changes)” value is listed as “Deg”; the “Severity score Day 1” value worked out at 0. In addition, in test [1], the “Severity score Day 2” value came to 2, the “Severity score Day 3” value is reported as 3 and the “Severity score Day 4” value is given as 4.
In the case of `N#CCNC(=O)[C@H](CC1CCCCC1)NC(=O)c1ccc(-c2noc(-c3cccs3)n2)cc1` [Gü2421], on recombinant SmCB1 (setting [2]), the inhibitory constant (Ki) came out at 12 ± 4 nM. In test [1], the “Descriptors Day 1 (phenotypic changes)” value is listed as “R, S”; the “Descriptors Day 2 (phenotypic changes)” value is reported as “R, S”; the “Descriptors Day 3 (phenotypic changes)” value is “R, S, Dark”; the “Descriptors Day 4 (phenotypic changes)” value was “R, S, Dark”. In addition, in test [1], the “Severity score Day 1” value amounted to 2, the “Severity score Day 2” value turned out to be 2, the “Severity score Day 3” value was 3 and the “Severity score Day 4” value is reported as 3.
For the compound `CN(CC#N)C(=O)[C@H](Cc1ccccc1)NC(=O)OCc1ccccc1` [Compound 9c], at recombinant SmCB1 (setting [4]), the Ki is over 10000 nM. Also, on recombinant SmCB1 (setting [3]), the inhibition constant (Ki) is over 100000 nM. Also, in test [1], the “Severity score Day 1” value was found to be 0, the “Severity score Day 2” value was found to be 0, the “Severity score Day 3” value was 0 and the “Severity score Day 4” value was 0.
For `N#CCNC(=O)[C@H](Cc1ccc(O)cc1)NC(=O)OCc1ccccc1` [Gü2031], at recombinant SmCB1 (setting [2]), the Ki was 760 ± 220 nM. In addition, in test [1], the “Severity score Day 1” value came to 0, the “Severity score Day 2” value is listed as 0, the “Severity score Day 3” value worked out at 0 and the “Severity score Day 4” value is 0.
Take `C[C@@H](C#N)NC(=O)[C@H](Cc1ccccc1)NC(=O)OCc1ccccc1` [Compound 8c]: the Ki on recombinant SmCB1 (setting [4]) was over 10000 nM. Further, in test [1], the “Severity score Day 1” value amounted to 0, the “Severity score Day 2” value amounted to 0, the “Severity score Day 3” value amounted to 0 and the “Severity score Day 4” value is listed as 0.
Regarding `CC(C)(C)OC(=O)N[C@@H](Cc1ccc(-c2ccccc2)cc1)C(=O)NCC#N` [Gü1124], on recombinant SmCB1 (setting [2]), the inhibition constant (Ki) stood at 270 ± 50 nM. Moreover, in test [1], the “Severity score Day 1” value is 0, the “Severity score Day 2” value is 0, the “Severity score Day 3” value was 0 and the “Severity score Day 4” value amounted to 0.
For `N#CCNC(=O)[C@H](Cc1ccccc1)NC(=O)OCc1ccccc1` [Compound 2c], the “binding kinetics (shape of progress curves)” value on recombinant SmCB1 (Figure 2) is listed as “fast-binding”. The Ki at recombinant SmCB1 (setting [4]) is 2920 ± 320 nM. Further, the Ki at recombinant SmCB1 (setting [3]) came out at 2920 ± 320 nM. Further, in test [1], the “Severity score Day 1” value is 0, the “Severity score Day 2” value stood at 0, the “Severity score Day 3” value was 0 and the “Severity score Day 4” value amounted to 0.
With `CC(C)C[C@H](NC(=O)Nc1ccccc1)C(=O)N(C)N(C)C#N` [Compound 18a], the inhibitory constant (Ki) at recombinant SmCB1 (setting [3]) was 112 ± 11 nM. Further, in test [1], the “Descriptors Day 1 (phenotypic changes)” value is listed as “R, Unc”; the “Descriptors Day 2 (phenotypic changes)” value was “Deg”; the “Severity score Day 1” value turned out to be 2; the “Severity score Day 2” value turned out to be 4. In test [1], the “Severity score Day 3” value turned out to be 4 and the “Severity score Day 4” value was 4.
Turning to `CN(C(=O)[C@H](Cc1ccccc1)NC(=O)OCc1ccccc1)N(C#N)Cc1ccccc1` [Compound 10a], the Ki on recombinant SmCB1 (setting [3]) was determined as 48.9 ± 4.7 nM. In addition, the “SmCB1 inhibition k2nd” value on recombinant SmCB1 is 1.5 ± 0.1 10^3 M^-1 s^-1. In addition, in test [1], the “Descriptors Day 1 (phenotypic changes)” value is listed as “R, Unc”; the “Descriptors Day 2 (phenotypic changes)” value is recorded as “Deg”; the “Severity score Day 1” value is 2; the “Severity score Day 2” value was found to be 4. In test [1], the “Severity score Day 3” value was found to be 4 and the “Severity score Day 4” value stood at 4.
For `CC(C)C[C@@H](C(=O)N(C)N(C)C#N)N(C)C(=O)c1ccc(-c2noc(-c3cccs3)n2)cc1` [Compound 6a], on recombinant SmCB1 (setting [3]), the inhibitory constant (Ki) turned out to be 1540 ± 250 nM. Also, at recombinant SmCB1 (ratio of SmCB1 Ki values), the “decrease in potency versus 5a” value is 300 fold. For the same compound, at recombinant SmCB1, the “SmCB1 inhibition k2nd” value was 0.5 ±0.1 10^3 M^-1 s^-1. Also, in test [1], the “Descriptors Day 1 (phenotypic changes)” value is “Deg”; the “Descriptors Day 2 (phenotypic changes)” value was “Deg”; the “Severity score Day 1” value is 4 and 4/4; the “Severity score Day 2” value was 4 and 4/4. In test [1], the “Severity score Day 3” value turned out to be 4 and the “Severity score Day 4” value worked out at 4.
For `CC(C)C[C@H](NC(=O)NCc1ccccc1)C(=O)NCC#N` [Compound 3c, (S)-2-(3-Benzylureido)-N-(cyanomethyl)-4-methylpentanamide], on recombinant SmCB1 (setting [4]), the Ki is over 10000 nM. Also, the inhibition constant (Ki) at recombinant SmCB1 (setting [3]) is over 100000 nM. In test [1], the “Severity score Day 1” value was 0, the “Severity score Day 2” value is given as 0, the “Severity score Day 3” value was 0 and the “Severity score Day 4” value worked out at 0.
As for `N#CCNC(=O)CNC(=O)OCc1ccccc1` [Compound 1c], at recombinant SmCB1 (setting [4]), the Ki was over 10000 nM. For the same compound, the inhibition constant (Ki) on recombinant SmCB1 (setting [3]) is over 100000 nM. For the same compound, in test [1], the “Severity score Day 1” value is listed as 0, the “Severity score Day 2” value stood at 0, the “Severity score Day 3” value is recorded as 0 and the “Severity score Day 4” value is on record as 0.
In the case of `C[C@@H](C#N)N(C)C(=O)[C@H](Cc1ccccc1)NC(=O)OCc1ccccc1` [Compound 10c], the inhibitory constant (Ki) on recombinant SmCB1 (setting [4]) was over 10000 nM. The inhibition constant (Ki) on recombinant SmCB1 (setting [3]) was over 100000 nM. Moreover, in test [1], the “Severity score Day 1” value worked out at 0, the “Severity score Day 2” value came out at 0, the “Severity score Day 3” value is recorded as 0 and the “Severity score Day 4” value is given as 0.
Regarding `CC(C)C[C@H](NC(=O)c1ccc(-c2noc(-c3cccs3)n2)cc1)C(=O)NCC#N` [Compound 5c], at recombinant SmCB1 (setting [4]), the Ki is 1220 ± 200 nM. Further, the inhibition constant Ki at recombinant SmCB1 (setting [3]) is 1210 ± 205 nM. Further, in test [1], the “Descriptors Day 2 (phenotypic changes)” value is “R”; the “Descriptors Day 3 (phenotypic changes)” value is “R, Dark”; the “Descriptors Day 4 (phenotypic changes)” value was “Deg”; the “Severity score Day 1” value is 0. Also, in test [1], the “Severity score Day 2” value is 1, the “Severity score Day 3” value is listed as 2 and the “Severity score Day 4” value was 4.
